According to ChEMBL document CHEMBL1153748 (J Med Chem, 2010):

How the values were obtained:
[1] = molecular target: T1, Peroxisome proliferator-activated receptor alpha (Homo sapiens, UniProt Q07869); assay: Agonist activity at human PPARalpha ligand binding domain expressed in human 293T cells co-transfected with Gal4-DBD by luciferase transactivation assay; format: cell-based
T1 sequence (Q07869 whole entry): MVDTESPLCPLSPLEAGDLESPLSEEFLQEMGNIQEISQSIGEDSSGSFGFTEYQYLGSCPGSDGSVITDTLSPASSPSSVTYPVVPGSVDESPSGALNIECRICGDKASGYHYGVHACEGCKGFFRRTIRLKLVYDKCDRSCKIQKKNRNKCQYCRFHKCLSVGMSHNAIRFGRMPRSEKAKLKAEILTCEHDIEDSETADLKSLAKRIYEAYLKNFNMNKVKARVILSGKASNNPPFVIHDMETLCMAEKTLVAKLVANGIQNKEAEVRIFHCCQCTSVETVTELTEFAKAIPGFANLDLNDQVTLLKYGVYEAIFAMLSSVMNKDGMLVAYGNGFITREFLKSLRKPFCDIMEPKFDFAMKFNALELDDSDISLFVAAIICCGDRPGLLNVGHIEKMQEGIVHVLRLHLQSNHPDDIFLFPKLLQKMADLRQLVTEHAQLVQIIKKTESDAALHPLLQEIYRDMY

[2] = molecular target: T2, Peroxisome proliferator-activated receptor gamma (Homo sapiens, UniProt P37231); format: cell-based, 293T
T2 sequence (P37231 whole entry): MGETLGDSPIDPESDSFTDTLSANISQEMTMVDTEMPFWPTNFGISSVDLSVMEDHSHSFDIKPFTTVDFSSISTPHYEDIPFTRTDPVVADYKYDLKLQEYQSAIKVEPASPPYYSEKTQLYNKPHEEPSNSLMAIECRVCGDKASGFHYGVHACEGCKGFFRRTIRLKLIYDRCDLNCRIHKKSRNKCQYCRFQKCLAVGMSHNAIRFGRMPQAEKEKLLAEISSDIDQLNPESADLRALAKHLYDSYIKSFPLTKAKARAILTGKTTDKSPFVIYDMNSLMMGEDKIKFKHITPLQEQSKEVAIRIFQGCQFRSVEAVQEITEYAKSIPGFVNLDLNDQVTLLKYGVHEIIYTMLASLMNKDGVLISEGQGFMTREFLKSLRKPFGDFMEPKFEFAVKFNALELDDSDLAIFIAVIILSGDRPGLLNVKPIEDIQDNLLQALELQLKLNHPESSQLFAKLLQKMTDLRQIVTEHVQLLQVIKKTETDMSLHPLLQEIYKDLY

[3] = molecular target: T3, Peroxisome proliferator-activated receptor alpha (Homo sapiens) (UniProt Q07869); assay: Agonist activity at human PPARalpha ligand binding domain expressed in human 293T cells co-transfected with Gal4-DBD by luciferase transactivation assay relative to KRP297; format: cell-based
T3 sequence (whole entry): T1 sequence (Q07869 whole entry)

[4] = molecular target: T4, Peroxisome proliferator-activated receptor delta (Homo sapiens, UniProt Q03181)
T4 sequence (Q03181 whole entry): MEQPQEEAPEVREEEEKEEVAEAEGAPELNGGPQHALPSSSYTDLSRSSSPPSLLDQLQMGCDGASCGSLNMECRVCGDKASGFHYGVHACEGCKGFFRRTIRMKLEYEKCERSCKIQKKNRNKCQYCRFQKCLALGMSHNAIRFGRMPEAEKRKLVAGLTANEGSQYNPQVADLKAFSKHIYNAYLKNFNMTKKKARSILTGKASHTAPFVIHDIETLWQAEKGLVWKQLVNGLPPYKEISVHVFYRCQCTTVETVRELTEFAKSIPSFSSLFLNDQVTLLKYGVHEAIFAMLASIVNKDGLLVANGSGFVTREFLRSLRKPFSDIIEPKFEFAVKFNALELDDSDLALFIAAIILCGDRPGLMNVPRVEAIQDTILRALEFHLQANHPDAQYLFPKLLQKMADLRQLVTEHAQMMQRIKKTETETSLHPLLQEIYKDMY

Structure (SMILES) | EC50 ([1]; read-out: EC50) | EC50 ([2]; read-out: EC50) | Efficacy [3] | EC50 [4] | EC50 ([1]; 293t) | EC50 ([2]; 293t)
Cc1cc(OCc2nc(-c3cnc(N4CCOCC4)nc3)c(-c3ccc(OC(F)(F)F)cc3)s2)ccc1OCC(=O)O | 1990 nM | > 10000 nM | 38% | 3 nM | – | –
Cc1cc(OCc2nc(-c3ccc(C(=O)N4CCCCC4)cc3)c(-c3ccc(OC(F)(F)F)cc3)s2)ccc1OCC(=O)O | 1590 nM | 1560 nM | 55% | 6 nM | – | –
Cc1cc(OCc2nc(-c3ccc(N4CCCCC4)cc3)c(-c3ccc(OC(F)(F)F)cc3)s2)ccc1OCC(=O)O | 5200 nM | > 10000 nM | 9% | 52 nM | – | –
COc1ccc(-c2nc(SCCOc3ccc(OCC(=O)O)c(C)c3)sc2-c2ccc(OC)cc2)cc1 | 5350 nM | 5660 nM | 64% | > 10000 nM | – | –
COc1ccc(-c2csc(COc3ccc(OCC(=O)O)c(C)c3)n2)cc1 | 4080 nM | > 10000 nM | 5% | 4060 nM | – | –
Cc1cc(OCc2nc(-c3cnc(N4CCOCC4)nc3)c(-c3ccc(OC(F)(F)F)cc3)o2)ccc1OCC(=O)O | 410 nM | 1030 nM | 69% | 1 nM | – | –
COc1ccc(-c2nc(SCCCCOc3ccc(OCC(=O)O)c(C)c3)sc2-c2ccc(OC)cc2)cc1 | 2370 nM | 6360 nM | 89% | > 10000 nM | – | –
Cc1cc(OCc2nc(-c3ccc(C(=O)N(C)C(C)C)cc3)c(-c3ccc(OC(F)(F)F)cc3)o2)ccc1OCC(=O)O | 700 nM | 600 nM | 49% | 1 nM | – | –
Cc1cc(OCc2nc(-c3ccc(-c4ccccc4)cc3)cs2)ccc1OCC(=O)O | 480 nM | > 10000 nM | 42% | 340 nM | – | –
COc1ccc(-c2nc(SCCCOc3ccc(OCC(=O)O)c(C)c3)sc2-c2ccc(OC)cc2)cc1 | 5250 nM | 6890 nM | 62% | > 10000 nM | – | –
COc1ccc(-c2nc(COc3ccc(OCC(=O)O)c(C)c3)sc2-c2ccc(C(C)(C)C)cc2)cc1 | > 10000 nM | > 10000 nM | – | 720 nM | – | –
Cc1cc(OCc2nc(-c3ccc4c(c3)OCCCO4)c(-c3ccc(OC(F)(F)F)cc3)s2)ccc1OCC(=O)O | > 10000 nM | > 10000 nM | – | 13 nM | – | –
COc1ccc(-c2nc(COc3ccc(OCC(=O)O)c(C)c3)sc2-c2ccc(OC(F)(F)F)cc2)cc1 | > 10000 nM | > 10000 nM | – | 20 nM | – | –
Cc1cc(OCc2nc(-c3ccc(C(F)(F)F)cc3)cs2)ccc1OCC(=O)O | > 10000 nM | > 10000 nM | – | 1390 nM | – | –
COc1ccc(-c2nc(CSc3ccc(OCC(=O)O)c(C)c3)sc2-c2ccc(C(F)(F)F)cc2)cc1 | > 10000 nM | > 10000 nM | – | 230 nM | – | –
Cc1cc(OCc2nc(-c3ccc(Cl)cc3)cs2)ccc1OCC(=O)O | > 10000 nM | > 10000 nM | – | 4710 nM | – | –
CCN(CC)c1ccc(-c2nc(COc3ccc(OCC(=O)O)c(C)c3)sc2-c2ccc(OC(F)(F)F)cc2)cc1 | > 10000 nM | > 10000 nM | – | 30 nM | – | –
COc1ccc(-c2nc(CSc3ccc(OCC(=O)O)c(C)c3)oc2-c2ccc(OC)cc2)cc1 | > 10000 nM | > 10000 nM | – | 660 nM | – | –

Structure (SMILES) | EC50 ([1]; read-out: EC50) | EC50 ([2]; read-out: EC50) | Efficacy [3] | EC50 [4] | EC50 ([1]; 293t) | EC50 ([2]; 293t)
COc1ccc(-c2nc(COc3ccc(OCC(=O)O)c(C)c3)oc2-c2cccc(C(F)(F)F)c2)cc1 | > 10000 nM | > 10000 nM | – | 650 nM | – | –
COc1ccc(-c2nc(COc3cccc(OCC(=O)O)c3)sc2-c2ccc(C(F)(F)F)cc2)cc1 | > 10000 nM | > 10000 nM | – | > 10000 nM | – | –
Cc1cc(OCc2nc(C)c(-c3ccc(Cl)cc3)s2)ccc1OCC(=O)O | > 10000 nM | > 10000 nM | – | 320 nM | – | –
COc1ccc(-c2sc(COc3ccc(OCC(=O)O)c(C)c3)nc2-c2ccccc2)cc1 | > 10000 nM | > 10000 nM | – | 2620 nM | – | –
COc1ccc(-c2sc(COc3ccc(OCC(=O)O)c(C)c3)nc2C)cc1 | > 10000 nM | > 10000 nM | – | > 10000 nM | – | –
COc1ncc(-c2nc(COc3ccc(OCC(=O)O)c(C)c3)sc2-c2ccc(OC(F)(F)F)cc2)cn1 | > 10000 nM | > 10000 nM | – | 34 nM | – | –
COc1ccc(-c2nc(COc3ccc(OCC(=O)O)c(C)c3)oc2-c2cnc3ccccc3c2)cc1 | > 10000 nM | > 10000 nM | – | 110 nM | – | –
COc1ccc(-c2nc(COc3ccc(OCC(=O)O)c(C)c3)sc2-c2ccc(-c3ccccc3)cc2)cc1 | > 10000 nM | > 10000 nM | – | 10 nM | – | –
COc1ccc(-c2nc(COc3ccc(OC(C)(C)C(=O)O)cc3)sc2-c2ccc(C(F)(F)F)cc2)cc1 | > 10000 nM | > 10000 nM | – | 1200 nM | – | –
CCCc1ccc(-c2sc(COc3ccc(OCC(=O)O)c(C)c3)nc2-c2ccc(OC)cc2)cc1 | > 10000 nM | > 10000 nM | – | 510 nM | – | –
COc1ccc(-c2nc(COc3ccc(OCC(=O)O)c(C)c3)sc2-c2ccc(OC)c(Cl)c2)cc1 | > 10000 nM | > 10000 nM | – | 130 nM | – | –
COc1ccc(-c2nc(COc3ccc(OCC(=O)O)c(C)c3)oc2-c2ccc(Cl)cc2)cc1 | > 10000 nM | > 10000 nM | – | 50 nM | – | –
Cc1cc(CN(CC(=O)Nc2ccc(Cl)cc2Cl)C2CCCCC2)ccc1OCC(=O)O | – | – | – | 3 nM | Not Active | Not Active
Cc1cc(OCc2nc(-c3cccnc3)c(-c3ccc(OC(F)(F)F)cc3)s2)ccc1OCC(=O)O | > 10000 nM | > 10000 nM | – | 68 nM | – | –
COc1ccc(-c2nc(Sc3cccc(C(C)C(=O)O)c3)sc2-c2ccc(OC)cc2)cc1 (stereo not given) | 300 nM | 2300 nM | – | 3200 nM | – | –
COc1ccc(-c2nc(COc3ccc(OCC(=O)O)c(C)c3)sc2-c2cc3ccccc3o2)cc1 | > 10000 nM | > 10000 nM | – | 50 nM | – | –
COc1ccc(-c2nc(COc3ccc(CCC(=O)O)c(C)c3)sc2-c2ccc(C(F)(F)F)cc2)cc1 | > 10000 nM | > 10000 nM | – | 140 nM | – | –
